Data as given in US20230057359A1, “NOVEL USE OF STEVIOL” (SUNTORY HOLDINGS LIMITED, priority 2019, published 2023).

Assays:
[1] = system: adipocytes differentiated from normal human subcutaneous preadipocytes; experiment: Lipolysis test in adipocytes (free glycerol in culture supernatant); type: cell-based; settings: for Relative lipolysis level (%): 24 hours, DMSO=100%
Procedure: Normal human subcutaneous preadipocytes were precultured using the growth medium in the same manner as in Example 1. The cells were detached using 0.25% trypsin-EDTA, seeded at 10,000 cells/100 μL/well to a 96-well plate using the growth medium, and cultured overnight in a CO2 incubator. On the next day, the medium was replaced with the differentiation medium (100 μL), and the cells were cultured for 10 days in a CO2 incubator to induce their differentiation into adipocytes. On the fourth and seventh days after the differentiation induction, the medium was replaced with a fresh differentiation medium (100 μL). Next, the medium was replaced with a differentiation medium supplemented with varying concentrations of steviol (10, 30 or 100 μg/mL, dissolved in 0.1% DMSO (final concentration)), and the cells were cultured for 24 hours in a CO2 incubator. Then, a free glycerol level in a culture supernatant was measured using Adipolysis Assay Kit (Cat. No. 10009381, Cayman Chemical Co.) according to the manufacturer's protocol. For the measurement, absorbance (540 nm) was measured using a plate reader (VARIOSKAN FLASH, Thermo Fisher Scientific Inc.), and a relative free glycerol concentration was calculated. A differentiation medium supplemented with 10 μM isoproterenol (ISP) was used as a positive control, and a vehicle control (DMSO) composed of a differentiation medium supplemented with 0.1% DMSO (final concentration) and a no-addition control composed of only the differentiation medium were used as negative controls. Significant difference among the test groups to be compared (no-addition group vs positive control group, vehicle control group vs steviol addition group) was tested by the Student's t test. The two-tailed test was conducted, and P<0.05 was regarded as having significant difference.

[2] = system: adipocytes differentiated from normal human subcutaneous preadipocytes; experiment: Sugar uptake test in adipocytes (intracellular 2DG6P, Glucose Uptake-Glo); type: cell-based; settings: for Relative luminescence intensity (%) (relative intracellular 2DG6P level): 4 hours, DMSO=100%
Procedure: Normal human subcutaneous preadipocytes were precultured using the growth medium in the same manner as in Example 1. The cells were detached using 0.25% trypsin-EDTA, seeded at 10,000 cells/100 μL/well to a 96-well plate using the growth medium, and cultured overnight in a CO2 incubator. On the next day, the medium was replaced with the differentiation medium (100 μL). The cells were cultured for 10 days in a CO2 incubator to induce their differentiation into adipocytes. On the fourth and seventh days after the differentiation induction, the medium was replaced with a fresh differentiation medium (100 μL). Next, the medium was replaced with 100 μLL of a serum-free medium (PBM-2 medium supplemented with 2 mM L-glutamine, 50 μg/mL gentamycin, and 37 ng/mL amphotericin-B, Cat. No. PT-8002, Lonza Group AG), and the cells were cultured for 18 hours in a CO2 incubator. Subsequently, the medium was replaced with 100 μL of a glucose-free serum-free medium (DMEM, no glucose, Cat. No. 11966025, Thermo Fisher Scientific Inc.) supplemented with varying concentrations of steviol (10, 30 or 100 μg/mL, dissolved in 0.1% DMSO (final concentration)), and the cells were cultured for 4 hours in a CO2 incubator. A glucose-free serum-free medium supplemented with 100 μM acadesine (AICAR, Cat. No. A9978, Sigma-Aldrich Co., LLC) was used as a positive control, and a vehicle control composed of a glucose-free serum-free medium supplemented with 0.1% DMSO (final concentration) and a no-addition control composed of only a glucose-free serum-free medium were used as negative controls. After culture, intracellular 2-deoxyglucose-6-phosphate (2DG6P, 2-deoxyglucose (2DG) phosphorylation product) level was measured by the following procedures using Glucose Uptake-Glo Assay kit (Cat. No. J1341, Promega Corp.). The medium of each well was replaced with a DPBS solution (50 μL) supplemented with 1 mM 2DG. After incubation at room temperature for 10 minutes, a stop buffer (25 μL), a neutralization buffer (25 μL), and a 2DG6P detection reagent (100 μL) were added thereto. After incubation at room temperature for 60 minutes, luminescence intensity was measured using a plate reader (VARIOSKAN FLASH, Thermo Fisher Scientific Inc.), and relative luminescence intensity was regarded as a relative intracellular 2DG6P level. Significant difference among the test groups to be compared (no-addition group vs positive control group, vehicle control group vs steviol addition group) was tested by the Student's t test. The two-tailed test was conducted, and P<0.05 was regarded as having significant difference.

## C=C1C[C@@]23CC[C@H]4[C@@](C)(CCC[C@@]4(C)C(=O)O)[C@@H]2CC[C@]1(O)C3 [Steviol, steviol]
[1]; 10, 30 or 100 μg/mL
  lipolysis in adipocytes (in words): promoted lipolysis in adipocytes in a concentration-dependent manner
[1]; steviol 10 μg/mL
  Relative lipolysis level (%): 99.5%
[1]; steviol 30 μg/mL
  Relative lipolysis level (%): 115.5%
[1]; steviol 100 μg/mL
  Relative lipolysis level (%): 123.4%
[2]; 10, 30 or 100 μg/mL
  sugar uptake in adipocytes (in words): promoted sugar uptake in adipocytes in a concentration-dependent manner
[2]; steviol 10 μg/mL
  Relative luminescence intensity (%) (relative intracellular 2DG6P level): 109.6%
[2]; steviol 30 μg/mL
  Relative luminescence intensity (%) (relative intracellular 2DG6P level): 142.5%
[2]; steviol 100 μg/mL
  Relative luminescence intensity (%) (relative intracellular 2DG6P level): 216.2%
